Laboratory results taken from patent publication EP0314302A2, “Herbicidal o-carbomethoxy-sulfonylureas” (E.I. DU PONT DE NEMOURS AND COMPANY, priority 1987, dated 1989).

Experiments:
Format in all cases: in vivo
[1] = tested on: Vetch; experiment: Test 7 postemergence; conditions: scale 0-100
Protocol: (§1) Individual 11.4-cm plastic pots filled with planting medium were seeded with rape, wild radish (Raphanus raphanistruna). tansy mustard (Descurainia pinnata), ball mustard (Neslia paniculata), black mustard (Brassica nigra), yellow mustard, brown mustard, lentils, safflower, flax, sunflower, peanut, vetch, alfalfa, field bean, pea, violet (Viola spp), Kochia (Kochia spp), Russian thistle (Salsola spp), Matricaria spp, groundsel (Senecio spp), shepherdspurse (Capsella bursa-pastoris), nightshade (Solanum spp), sowthistle (Sonchus spp), sugar beet, wheat, "Bonanza" barley and "Morex" barley, Kentucky bluegrass (Poa pratensis), red clover (Trifolium pratense), dandelion (Taraxacum spp) and buckhorn plantain (Plantago lanceolata).
(§2) Plants were treated postemergence with the compound formulated with a non-phytotoxic carrier. Plants were visually rated 18 days after treatment (DAT). Response ratings were based on the scale of 0 to 100 where 0 = no effect, 20 = minimal injury and 100 = complete control.

[2] = tested on: Bonanza barley; experiment: Test 7 postemergence; conditions: scale 0-100
Protocol: as §1, §2

[3] = tested on: Safflower; experiment: Test 7 postemergence; conditions: scale 0-100
Protocol: as §1, §2

[4] = tested on: Alfalfa; experiment: Test 7 postemergence; conditions: scale 0-100
Protocol: as §1, §2

[5] = tested on: Sunflower; experiment: Test 7 postemergence; conditions: scale 0-100
Protocol: as §1, §2

[6] = tested on: Onicutal mustard; experiment: Test 7 postemergence; conditions: scale 0-100
Protocol: as §1, §2

[7] = tested on: Lentils; experiment: Test 7 postemergence; conditions: scale 0-100
Protocol: as §1, §2

[8] = tested on: Rape; experiment: Test 7 postemergence; conditions: scale 0-100
Protocol: as §1, §2

[9] = tested on: Flax; experiment: Test 7 postemergence; conditions: scale 0-100
Protocol: as §1, §2

[10] = tested on: Sugar beet; experiment: Test 7 postemergence; conditions: scale 0-100
Protocol: as §1, §2

[11] = tested on: Brown mustard; experiment: Test 7 postemergence; conditions: scale 0-100
Protocol: as §1, §2

[12] = tested on: Yellow mustard; experiment: Test 7 postemergence; conditions: scale 0-100
Protocol: as §1, §2

[13] = tested on: Morex barley; experiment: Test 7 postemergence; conditions: scale 0-100
Protocol: as §1, §2

[14] = tested on: Pea; experiment: Test 7 postemergence; conditions: scale 0-100
Protocol: as §1, §2

[15] = tested on: Wheat; experiment: Test 7 postemergence; conditions: scale 0-100
Protocol: as §1, §2

[16] = tested on: Peanut; experiment: Test 7 postemergence; conditions: scale 0-100
Protocol: as §1, §2

[17] = tested on: Field bean; experiment: Test 7 postemergence; conditions: scale 0-100
Protocol: as §1, §2

[18] = tested on: Zea mays; experiment: Test 1 greenhouse, preemergence; conditions: 21 days, scale 0-100
Protocol: (§3) Seeds of Bromus tectorum, Kochia scoparia, Salsoa kali, Avena fatua, Convolvulus arvensis, Secale cereale, Setaria viridis and Triticum aestivum were placed in 26-cm plastic pans containing a pasteurized sandy loam soil (pH 6.5, 1% organic matter). Plantings were maintained in the greenhouse for 18-28 days at which time the postemergence treatments were applied using a nonphytotoxic solvent as the carrier for the herbicide. The preemergence segment of the test was seeded immediately before herbicide application using Bromus tectorum, Kochia scoparia, Polygonum convolvulus, Salsoa kali, Avena fatua, Convolvulus arvensis, Secale cereale, Setaria viridis, Aegilops cylindrica, Amaranthus retroflexus, Chenopodium album, Hordeum vulgare, Triticum aestivum, Sorghum bicolor, and Zea mays. All treatments were maintained in the greenhouse for an additional 21 days at which time visual assessment of weed control was determined using a scale of 0 to 100 for each species where 0 represented no control and 100 represented complete control.

[19] = tested on: Polygonum convolvulus; experiment: Test 1 greenhouse, preemergence; conditions: 21 days, scale 0-100
Protocol: as §3

[20] = tested on: Bromus tectorum; experiment: Test 1 greenhouse, preemergence; conditions: 21 days, scale 0-100
Protocol: as §3

[21] = tested on: Hordeum vulgare; experiment: Test 1 greenhouse, preemergence; conditions: 21 days, scale 0-100
Protocol: as §3

[22] = tested on: Amaranthus retroflexus; experiment: Test 1 greenhouse, preemergence; conditions: 21 days, scale 0-100
Protocol: as §3

[23] = tested on: Sorghum bicolor; experiment: Test 1 greenhouse, preemergence; conditions: 21 days, scale 0-100
Protocol: as §3

[24] = tested on: Secale cereale; experiment: Test 1 greenhouse, preemergence; conditions: 21 days, scale 0-100
Protocol: as §3

[25] = tested on: Aegilops cylindrica; experiment: Test 1 greenhouse, preemergence; conditions: 21 days, scale 0-100
Protocol: as §3

Question: How did the “Plant Injury Rating 18 DAT” value ([1]; 16 g/ha) turn out when COC(=O)c1cccnc1S(=O)(=O)NC(=O)Nc1nc(OC)cc(OC)n1 [Compound I, 2-[[(4,6-dimethoxypyrimidin-2-yl)aminocarbonyl]aminosulfonyl]-3-pyridinecarboxylic acid, methyl ester] was run?
Answer: 100

Question: And the “Plant Injury Rating 18 DAT” value ([1]; 32 g/ha)?
Answer: 100

Question: And the “Plant Injury Rating 18 DAT” value ([2]; 16 g/ha)?
Answer: 90

Question: What about the “Plant Injury Rating 18 DAT” value ([2]; 32 g/ha) of the same molecule?
Answer: 100

Question: What about the “Plant Injury Rating 18 DAT” value ([3]; 16 g/ha) of the same molecule?
Answer: 100

Question: What about the “Plant Injury Rating 18 DAT” value ([3]; 32 g/ha) of the same molecule?
Answer: 100

Question: And the “Plant Injury Rating 18 DAT” value ([4]; 16 g/ha)?
Answer: 100

Question: What about the “Plant Injury Rating 18 DAT” value ([4]; 32 g/ha) of the same molecule?
Answer: 100

Question: What about the “Plant Injury Rating 18 DAT” value ([5]; 16 g/ha) of the same molecule?
Answer: 100

Question: And the “Plant Injury Rating 18 DAT” value ([5]; 32 g/ha)?
Answer: 100

Question: What about the “Plant Injury Rating 18 DAT” value ([6]; 16 g/ha) of the same molecule?
Answer: 100

Question: What about the “Plant Injury Rating 18 DAT” value ([6]; 32 g/ha) of the same molecule?
Answer: 100

Question: What about the “Plant Injury Rating 18 DAT” value ([7]; 16 g/ha) of the same molecule?
Answer: 100

Question: What about the “Plant Injury Rating 18 DAT” value ([7]; 32 g/ha) of the same molecule?
Answer: 100

Question: What about the “Plant Injury Rating 18 DAT” value ([8]; 16 g/ha) of the same molecule?
Answer: 80

Question: And the “Plant Injury Rating 18 DAT” value ([8]; 32 g/ha)?
Answer: 100

Question: And the “Plant Injury Rating 18 DAT” value ([9]; 16 g/ha)?
Answer: 100

Question: What about the “Plant Injury Rating 18 DAT” value ([9]; 32 g/ha) of the same molecule?
Answer: 100

Question: What about the “Plant Injury Rating 18 DAT” value ([10]; 16 g/ha) of the same molecule?
Answer: 100

Question: And the “Plant Injury Rating 18 DAT” value ([10]; 32 g/ha)?
Answer: 100

Question: What about the “Plant Injury Rating 18 DAT” value ([11]; 16 g/ha) of the same molecule?
Answer: 100

Question: And the “Plant Injury Rating 18 DAT” value ([11]; 32 g/ha)?
Answer: 100

Question: And the “Plant Injury Rating 18 DAT” value ([12]; 16 g/ha)?
Answer: 100

Question: What about the “Plant Injury Rating 18 DAT” value ([12]; 32 g/ha) of the same molecule?
Answer: 100

Question: And the “Plant Injury Rating 18 DAT” value ([13]; 16 g/ha)?
Answer: 90

Question: And the “Plant Injury Rating 18 DAT” value ([13]; 32 g/ha)?
Answer: 100

Question: What about the “Plant Injury Rating 18 DAT” value ([14]; 16 g/ha) of the same molecule?
Answer: 100

Question: And the “Plant Injury Rating 18 DAT” value ([14]; 32 g/ha)?
Answer: 100

Question: And the “Plant Injury Rating 18 DAT” value ([15]; 16 g/ha)?
Answer: 100

Question: And the “Plant Injury Rating 18 DAT” value ([15]; 32 g/ha)?
Answer: 100

Question: What about the “Plant Injury Rating 18 DAT” value ([16]; 16 g/ha) of the same molecule?
Answer: 100

Question: And the “Plant Injury Rating 18 DAT” value ([16]; 32 g/ha)?
Answer: 100

Question: What about the “Plant Injury Rating 18 DAT” value ([17]; 16 g/ha) of the same molecule?
Answer: 100

Question: What about the “Plant Injury Rating 18 DAT” value ([17]; 32 g/ha) of the same molecule?
Answer: 100

Question: And the “visual assessment of weed control” value ([18]; 4 g/ha)?
Answer: 40

Question: What about the “visual assessment of weed control” value ([18]; 8 g/ha) of the same molecule?
Answer: 50

Question: And the “visual assessment of weed control” value ([18]; 16 g/ha)?
Answer: 90

Question: And the “visual assessment of weed control” value ([18]; 32 g/ha)?
Answer: 90

Question: And the “visual assessment of weed control” value ([18]; 64 g/ha)?
Answer: 90

Question: And the “visual assessment of weed control” value ([18]; 125 g/ha)?
Answer: 100

Question: And the “visual assessment of weed control” value ([19]; 4 g/ha)?
Answer: 20

Question: And the “visual assessment of weed control” value ([19]; 8 g/ha)?
Answer: 20

Question: What about the “visual assessment of weed control” value ([19]; 16 g/ha) of the same molecule?
Answer: 80

Question: And the “visual assessment of weed control” value ([19]; 32 g/ha)?
Answer: 80

Question: And the “visual assessment of weed control” value ([19]; 64 g/ha)?
Answer: 80

Question: And the “visual assessment of weed control” value ([19]; 125 g/ha)?
Answer: 100

Question: What about the “visual assessment of weed control” value ([20]; 4 g/ha) of the same molecule?
Answer: 50

Question: What about the “visual assessment of weed control” value ([20]; 8 g/ha) of the same molecule?
Answer: 70

Question: And the “visual assessment of weed control” value ([20]; 16 g/ha)?
Answer: 80

Question: What about the “visual assessment of weed control” value ([20]; 32 g/ha) of the same molecule?
Answer: 90

Question: And the “visual assessment of weed control” value ([20]; 64 g/ha)?
Answer: 90

Question: And the “visual assessment of weed control” value ([20]; 125 g/ha)?
Answer: 100

Question: What about the “visual assessment of weed control” value ([21]; 4 g/ha) of the same molecule?
Answer: 50

Question: And the “visual assessment of weed control” value ([21]; 8 g/ha)?
Answer: 60

Question: And the “visual assessment of weed control” value ([21]; 16 g/ha)?
Answer: 70

Question: What about the “visual assessment of weed control” value ([21]; 32 g/ha) of the same molecule?
Answer: 80

Question: What about the “visual assessment of weed control” value ([21]; 64 g/ha) of the same molecule?
Answer: 80

Question: What about the “visual assessment of weed control” value ([21]; 125 g/ha) of the same molecule?
Answer: 90

Question: And the “visual assessment of weed control” value ([22]; 4 g/ha)?
Answer: 70

Question: And the “visual assessment of weed control” value ([22]; 8 g/ha)?
Answer: 90

Question: What about the “visual assessment of weed control” value ([22]; 16 g/ha) of the same molecule?
Answer: 90

Question: And the “visual assessment of weed control” value ([22]; 32 g/ha)?
Answer: 100

Question: What about the “visual assessment of weed control” value ([22]; 64 g/ha) of the same molecule?
Answer: 100

Question: What about the “visual assessment of weed control” value ([22]; 125 g/ha) of the same molecule?
Answer: 100

Question: And the “visual assessment of weed control” value ([23]; 4 g/ha)?
Answer: 90

Question: And the “visual assessment of weed control” value ([23]; 8 g/ha)?
Answer: 100

Question: What about the “visual assessment of weed control” value ([23]; 16 g/ha) of the same molecule?
Answer: 100

Question: What about the “visual assessment of weed control” value ([23]; 32 g/ha) of the same molecule?
Answer: 100

Question: And the “visual assessment of weed control” value ([23]; 64 g/ha)?
Answer: 100

Question: What about the “visual assessment of weed control” value ([23]; 125 g/ha) of the same molecule?
Answer: 100

Question: And the “visual assessment of weed control” value ([24]; 4 g/ha)?
Answer: 20

Question: What about the “visual assessment of weed control” value ([24]; 8 g/ha) of the same molecule?
Answer: 30

Question: And the “visual assessment of weed control” value ([24]; 16 g/ha)?
Answer: 40

Question: And the “visual assessment of weed control” value ([24]; 32 g/ha)?
Answer: 70

Question: And the “visual assessment of weed control” value ([24]; 64 g/ha)?
Answer: 80

Question: What about the “visual assessment of weed control” value ([24]; 125 g/ha) of the same molecule?
Answer: 90

Question: What about the “visual assessment of weed control” value ([25]; 4 g/ha) of the same molecule?
Answer: 30

Question: And the “visual assessment of weed control” value ([25]; 8 g/ha)?
Answer: 50

Question: What about the “visual assessment of weed control” value ([25]; 16 g/ha) of the same molecule?
Answer: 60

Question: And the “visual assessment of weed control” value ([25]; 32 g/ha)?
Answer: 80

Question: And the “visual assessment of weed control” value ([25]; 64 g/ha)?
Answer: 100

Question: What about the “visual assessment of weed control” value ([25]; 125 g/ha) of the same molecule?
Answer: 100
